In PMC10862543, “Naphthalene Diimide–Tetraazacycloalkane Conjugates Are G-Quadruplex-Based HIV-1 Inhibitors with a Dual Mode of Action” (ACS Infectious Diseases, 2024):
Counter-ions that a name gives are not always drawn.

How the values were obtained:
[1] = stability constant; cited from earlier work
HIV-1 X4 strain (NL4–3) = assay: Time of addition (TOA) assay, X4 strain; type: cell-based
Protocol: This assay indicates how long the addition of a compound can be postponed before it loses its antiviral activity: comparing the test compounds with reference drugs, whose mechanism is well characterized in the time frame of virus replication, it is possible to determine which viral steps are affected by the test compounds.[56]
Virus production was monitored at 25 h post infection, i.e., at the end of a single round of HIV-1 replication, by exploiting the LTR-driven luciferase reporter system.
25 h post infection HIV-1 production was assessed following the LTR-luciferase signal using the britelite plus Reporter Gene Assay System. The activity of the test compounds was compared with that of untreated infected cells and reference drugs (DS stands for dextran sulfate and NEV stands for nevirapine).
TZM-bl cells (1 × 10^4 cells/well) were seeded in 96-well plates and grown overnight to permit adherence prior to treatment and viral infection. Cells were next infected with HIV-1 NL4–3 or BaL strains (MOI 0.5 and 0.3, respectively) and incubated at 37 °C. […] Following these criteria, we used the highest possible concentrations with the lowest cytotoxicity. After 25 h, cells were washed with PBS 1× and HIV-1 production was assessed following the LTR-luciferase signal using the britelite plus Reporter Gene Assay System (PerkinElmer, Waltman, MA, USA) according to the manufacturer’s protocol.

TZM-bl cells = assay: MTT cytotoxicity assay on uninfected cells; type: cell-based; settings: for CC50: uninfected TZM-bl
Protocol: (§1) We used TZM-bl cells that are HeLa cells stably expressing large amounts of CD4, CXCR4, and CCR5, thus being highly susceptible to HIV-infection, with integrated luciferase and beta-galactosidase genes under the control of the HIV-1 promoter. We first tested NDI–tetraazacycloalkane conjugates’ cytotoxicity on TZM-bl cells by treating them with increasing amounts of compounds (0.097–25 μM) for 24 and 48 h.
(§2) Cytotoxicity of tested compounds was performed in parallel to antiviral and reporter assays by MTT. […] The selectivity index (SI) is the relative effectiveness of the tested compound in inhibiting viral replication compared to inducing cell death (CC50 value/IC50 value). […]. IC50 and CC50 values were calculated by using a nonlinear regression model.

LTR-III [2] = assay: FRET melting assay, LTR-III G4; type: binding, HIV-1; settings: LTR-III 0.25 μM, compound 0.5 μM, 100 mM KCl
Protocol: (§3) FRET assay was performed with FAM (6-carboxyfluorescein) 5′-end- and Tamra (6-carboxytetramethylrhodamine) 3′-end-labeled oligonucleotides (Table S1). Fluorescence melting curves were determined with a LightCycler II (Roche) real-time PCR machine, using a total reaction volume of 20 μL, with 0.25 μM tagged oligonucleotide in a buffer containing 10 mM lithium cacodylate pH 7.4 with 100 mM KCl, in the presence or absence of 0.5 μM NDI–tetraazacycloalkane conjugate. After a first equilibration step at 30 °C during 2 min, a stepwise increase of 1 °C every minute for 65 cycles to reach 95 °C was performed and measurements were made after each cycle with excitation at 470 nm and detection at 530 nm. Final analysis of the data was carried out using Excel and Sigma Plot software. Oligonucleotides melting was monitored by observing emission of FAM, which was normalized between 0 and 1: Tm was defined as the temperature at which the normalized emission is 0.5. Tm values were mean of 2–3 experiments and ΔTm was calculated as the difference Tm in the presence and absence of the compound.

LTR-IV [3] = assay: FRET melting assay, LTR-IV G4; type: binding, HIV-1; settings: LTR-IV 0.25 μM, compound 0.5 μM, 100 mM KCl
Protocol: as §3

F21T = type: binding; settings: F21T 0.25 μM, compound 0.5 μM, 100 mM KCl
Protocol: as §3

dsDNA = assay: FRET melting assay, dsDNA control; type: binding; settings: dsDNA 0.25 μM, compound 0.5 μM, 100 mM KCl
Protocol: as §3

LTR-III [4] = assay: CD melting, LTR-III G4; type: binding, HIV-1; settings: LTR-III 4 μM, compound 8 μM, 100 mM KCl
Protocol: (§4) All oligonucleotides used in this study were from Sigma-Aldrich (Milan, Italy) (Table S2). For CD analysis, oligonucleotides were diluted to a final concentration of 4 μM in lithium cacodylate buffer (10 mM, pH 7.4) and KCl 100 mM. After the annealing step (95 °C for 5 min), DNA samples were gradually cooled to room temperature and compounds added from stock at final concentration of 8 μM. […] The reported spectrum of each sample represents the average of 2 scans and is baseline-corrected for signal contributions due to the buffer. Observed ellipticities were converted to mean residue ellipticity (θ) = deg × cm^2 × dmol^–1 (mol ellip). For the determination of Tm, spectra were recorded over a temperature range of 20–90 °C, with a temperature increase of 5 °C/min. Tm values were calculated according to the van’t Hoff equation, applied for a two-state transition from a folded to unfolded state, assuming that the heat capacity of the folded and unfolded states are equal.

LTR-IV [5] = assay: CD melting, LTR-IV G4; type: binding, HIV-1; settings: LTR-IV 4 μM, compound 8 μM, 100 mM KCl
Protocol: as §4

Tel22 = assay: CD melting, telomeric G4 control; type: binding; settings: Tel22 4 μM, compound 8 μM, 100 mM KCl
Protocol: as §4

HIV-1 R5 strain (BaL) = assay: microbe, parasite or virus in culture; type: cell-based; settings: TZM-bl; for IC50: Human immunodeficiency virus 1, BAL, R5 strain, MOI 0.3
Protocol: (§5) We next tested the antiviral activity of the NDI–tetraazacycloalkane conjugates in TZM-bl cells. Cells were infected with HIV-1 NL4–3 or BaL, two strains with different cell tropism due to the different coreceptors that are bound by the virus to get access into the cell: HIV-1 NL4–3 exploits the CXCR4 coreceptor (X4 strain), while HIV-1 BaL exploits the CCR5 coreceptor (R5 strain). Compounds were administered at the time of infection or 2 h post infection, and the antiviral activity was evaluated 24 and 48 h post infection. Cytotoxicity was tested in parallel on uninfected cells to assess compound cytotoxicity.
(§6) Cytotoxicity of tested compounds was performed in parallel to antiviral and reporter assays by MTT. […] The selectivity index (SI) is the relative effectiveness of the tested compound in inhibiting viral replication compared to inducing cell death (CC50 value/IC50 value). […] IC50 and CC50 values were calculated by using a nonlinear regression model.
(§7) HIV-1 infectivity was measured using the TZM-bl reporter cell line (obtained through the NIH AIDS Reagent Program, Division of AIDS, NIAID, NIH: TZM-bl cells (catalog no. 8129) from Dr. John C. Kappes, and Dr. Xiaoyun Wu). TZM-bl is a HeLa cell line stably expressing large amounts of CD4 and CCR5, constitutively expressing CXCR4 and containing integrated copies of the luciferase and β-galactosidase genes under the control of the HIV-1 promoter. TZM-bl were grown in DMEM supplemented with 10% FBS. Cells (1 × 10^4 cells/well) were seeded in 96-well plates and grown overnight to permit adherence prior to treatment and viral infection. Cells were next infected with HIV-1 NL4–3 strain or BaL strain at a MOI of respectively 0.5 and 0.3 for 1 h at 37 °C, treated with serial dilutions of tested compounds, and incubated at 37 °C. MOI values had been optimized in previous in-house experiments in order to obtain a well detectable virus release but avoid a virus-induced cytopathic effect. Compounds were reconstituted in DMSO, and dilutions were made in cell medium to maintain the same percentage of DMSO in all dilutions. Untreated cells were treated with the same solvent. After 24 or 48 h, cells were washed with PBS 1× and HIV-1 production was assessed following the LTR-luciferase signal using the britelite plus Reporter Gene Assay System (PerkinElmer, Waltman, MA, USA) according to the manufacturer’s protocol.

HIV-1 X4 strain (NL4-3) = assay: microbe, parasite or virus in culture; type: cell-based; settings: for IC50: Human immunodeficiency virus 1, NL43, TZM-bl, X4 strain, MOI 0.5
Protocol: as §5, §6, §7

[6] = MTT cytotoxicity assay on uninfected cells; type: cell-based; settings: human, uninfected TZM-bl
Protocol: as §1, §2

T-tropic HIV = settings: cited from earlier work
[7] = administration 0 hpi, evaluation 24 hpi
[8] = administration 2 hpi, evaluation 24 hpi
[9] = administration 2 hpi, evaluation 48 hpi

C1CNCCNCCNCCN1 [Cyclen]
log Ka toward Cu^2+ [1]: 23.29

dextran sulfate
time post infection up to which the control drug is active (HIV-1 X4 strain (NL4–3)): active at the time of infection only

CN(C)CCCNc1cc2c3c(c(NCCCCCC(=O)O)cc4c3c1C(=O)N(CCCN(C)C)C4=O)C(=O)N(CCCN(C)C)C2=O [parental NDI]
cytotoxicity (in words) (TZM-bl cells; TZM-bl, 24 h, Figure S11): highly cytotoxic

CN(C)CCCNc1cc2c3c(c(NCCCCCC(=O)OCC4CNCCCNCCNCCN4)cc4c3c1C(=O)N(CCCN(C)C)C4=O)C(=O)N(CCCN(C)C)C2=O (stereo not shown) [compound 5]
Tm K^+ 100 mM + compound (FRET) (LTR-III [2]): 77.7 ± 0.1 °C | ΔTm (FRET) (LTR-III [2]): 12.5 °C | Tm K^+ 100 mM + compound (FRET) (LTR-IV [3]): 73.9 ± 0.6 °C | ΔTm (FRET) (LTR-IV [3]): 15.2 °C | Tm K^+ 100 mM + compound (FRET) (F21T): 66.6 ± 0.1 °C | ΔTm (FRET) (F21T): 2.2 °C | Tm K^+ 100 mM + compound (FRET) (dsDNA): 65.0 ± 0.2 °C | ΔTm (FRET) (dsDNA): 0.8 °C | Tm K^+ 100 mM + compound (CD) (LTR-III [4]): 78.6 ± 0.5 °C | ΔTm (CD) (LTR-III [4]): 10.4 °C | Tm K^+ 100 mM + compound (CD) (LTR-IV [5]): 71.6 ± 0.4 °C | ΔTm (CD) (LTR-IV [5]): 21.2 °C | Tm K^+ 100 mM + compound (CD) (Tel22): 60.9 ± 0.3 °C | ΔTm (CD) (Tel22): –5.9 °C | IC50 (HIV-1 R5 strain (BaL); [7]): > 25 µM | IC50 (HIV-1 R5 strain (BaL); [8]): > 25 µM | IC50 (HIV-1 R5 strain (BaL); [9]): 16.6 ± 1.33 µM | IC50 (HIV-1 X4 strain (NL4-3); [7]): 17.8 ± 0.94 µM | IC50 (HIV-1 X4 strain (NL4-3); administration 0 hpi, evaluation 48 hpi): 1.86 ± 0.49 µM | IC50 (HIV-1 X4 strain (NL4-3); [8]): 12.1 ± 1.02 µM | IC50 (HIV-1 X4 strain (NL4-3); [9]): 1.82 ± 0.65 µM | CC50 at 24 h ([6]; parallel to R5, administration 2 hpi, evaluation 24 hpi): > 25 µM | CC50 at 48 h ([6]; parallel to X4, administration 0 hpi, evaluation 48 hpi): > 25 µM | CC50 (TZM-bl cells; parallel to R5, administration 0 hpi, evaluation 24 hpi): > 25 µM | CC50 (TZM-bl cells; parallel to R5, administration 0 hpi, evaluation 48 hpi): > 25 µM | CC50 (TZM-bl cells; parallel to R5, administration 2 hpi, evaluation 48 hpi): > 25 µM | CC50 (TZM-bl cells; parallel to X4, administration 0 hpi, evaluation 24 hpi): > 25 µM | CC50 (TZM-bl cells; parallel to X4, administration 2 hpi, evaluation 24 hpi): > 25 µM | CC50 (TZM-bl cells; parallel to X4, administration 2 hpi, evaluation 48 hpi): > 25 µM

c1cc(CN2CCCNCCNCCCNCC2)ccc1CN1CCCNCCNCCCNCC1 [AMD3100, 1,1′-[1,4-phenylenebis(methylene)]-bis-1,4,8,11-tetraazacyclotetradecane octahydrochloride dehydrate, reference compound]
antiviral activity (in words) (HIV-1 R5 strain (BaL); BaL strain, Figure S10): inactive | antiviral activity (in words) (HIV-1 X4 strain (NL4-3); pNL4.3 strain, TZM-bl, Figure S10): excellent activity | concentration preventing replication of T-tropic HIV (in words) (T-tropic HIV): low nanomolar concentrations

C1CNCCNCCNCCNC1 [[13]aneN4]
log Ka for Cu^2+ [1]: 24.41

Cc1ccnc2c1NC(=O)c1cccnc1N2C1CC1 [nevirapine]
time post infection up to which the control drug is active (HIV-1 X4 strain (NL4–3)): 3 to 4 h
